Reference: patent US7514245B2, “Method for producing chiral α-hydroxycarboxylic acids by enzymatic hydrolysis of chiral cyanohydrins” (DSM Fine Chemicals Austria NFG GmbH & Co. KG, priority 2003, dated 2009)

What was measured:
[1] = target: T1, nitrile hydratase of Rhodococcus erythropolis NCIMB 11540 (Rhodococcus erythropolis, UniProt P13448+P13449); test: Hydrolysis using the recombinant enzyme (crude lysate of E. coli clone 7.3); format: biochemical; settings: substrate approximately 10 mM, 5% DMSO, 30° C., pH 7; for Activity of the nitrile hydratase: relative to 2-hydroxy-4-phenylbutyronitrile (100%)
T1 construct: made in house; host or cells: E. coli B BL21 (plasmid pMS470Nhase7.3 or pMSNhasetactac7.3), crude lysate
T1 sequence (P13448 1-207): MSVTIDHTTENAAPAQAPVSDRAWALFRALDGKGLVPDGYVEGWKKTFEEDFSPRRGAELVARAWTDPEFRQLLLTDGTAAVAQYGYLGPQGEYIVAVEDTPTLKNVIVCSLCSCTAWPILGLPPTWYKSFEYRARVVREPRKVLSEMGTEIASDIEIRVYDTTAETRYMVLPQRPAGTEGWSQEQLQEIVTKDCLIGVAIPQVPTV
T1 sequence (P13449 1-212): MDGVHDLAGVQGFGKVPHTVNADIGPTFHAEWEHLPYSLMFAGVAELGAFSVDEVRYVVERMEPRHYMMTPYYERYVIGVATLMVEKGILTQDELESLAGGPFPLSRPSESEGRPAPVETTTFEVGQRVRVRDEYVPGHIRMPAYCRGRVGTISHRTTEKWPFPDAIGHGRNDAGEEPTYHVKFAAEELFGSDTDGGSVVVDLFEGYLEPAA
Protocol: In these reactions, cloned nitrile hydratase of Rhodococcus erythropolis NCIMB 11540 was used as crude lysate of E. coli clone 7.3 (produced according to Example 9).
50 μl of crude lysate were diluted with 425 μl of buffer (K/Na—PO4 buffer, pH 7, 50 mM) and admixed with 25 μl of an approximately 220 mM substrate solution in DMSO (5 mg of protein/ml substrate concentration approximately 10 mM, 5% DMSO). The reaction was carried out in the Thermomixer at 30° C. and 1000 rpm. After 0, 2, 4, 6, 8, 10, 15, 20, 30, 60 and 120 minutes, in each case one Eppendorf was admixed with 0.5 ml of 1N HCl. After centrifugation (5 min, 13 000 rpm) and corresponding dilution, the concentrations of cyanohydrin and hydroxyamide were determined by HPLC. The activity of the nitrile hydratase was determined from the velocity of formation of hydroxyamide (gradient in the initial range). The standard substrate (100% activity) used was 2-hydroxy-4-phenylbutyronitile. The activity in the hydrolysis of the other substrates was compared with the activity on 2-hydroxy-4-phenylbutyronitrile (Tab. 5).

[2] = tested on: Rhodococcus erythropolis NCIMB 11540 cells; test: Enzymatic hydrolysis at different substrate concentrations, Experiment 4.1; format: cell-based; settings: 5% DMSO, 30° C.
Protocol: In experiment 4.1, the reaction was carried out on an analytical scale (reaction volume 1 ml) using 3 substrate concentrations (2.2 g/l, 6.6 g/l, 13.2 g/l).
The biocatalyst was produced according to Example 1, Variant II, 2 l of fermentation medium, harvest after 20 hours (OD546 6.1). The cells from 8 times 10 ml of fermentation solution were centrifuged off in culture tubes. The resultant cell mass was washed once in each case with 2 ml K/Na-phosphate buffer (pH 6.5, 50 mM). The contents of 2 tubes were lyophilized for determining the dry weight. • Weight: 1. 37 mg of lyophilized cells/10 ml fermentation solution • 2. 30 mg
The contents of the remaining 6 tubes were resuspended in 950 μl of buffer (OD approximately 40) and transferred to Eppendorfs. To each of these cell suspensions were added 50 μl of variously concentrated substrate solutions (3 concentrations, parallel batches, 5% DMSO as cosolvent). The Eppendorfs were shaken on the Thermomixer at 30° C. and 1000 rpm. For monitoring the conversion rate, in each case 200 μl were withdrawn and admixed with 200 μl of 1N HCl. After centrifugation (5 min, 13 000 rpm) and dilution, the conversion rates were determined by HPLC.
Following concentrations of (R)-2-chloromandelonitrile were used: • a. Substrate solution: 11 mg of (R)-2-chloromandelonitrile in 250 μl of DMSO (approximately 260 mM) • Substrate concentration in the batch: 2.2 g/l (13.1 mM) • b. Substrate solution: 33 mg of (R)-2-chloromandelonitrile in 250 μl of DMSO (approximately […]) • Substrate concentration in the batch: substrate concentration: 6.6 g/l (39.4 mM) • c. Substrate solution: 66 mg of (R)-2-chloromandelonitrile in 250 μl of DMSO (approximately 1580 mM) • Substrate concentration in the batch: 13.2 g/l (78.8 mM)

With `N#CC(O)c1ccccc1Cl` (stereo not shown) the “Activity of the nitrile hydratase” value [1] was 100%.
`Cc1ccc(C(O)C#N)cc1` (stereo not shown) was tested, and the “Activity of the nitrile hydratase” value [1] was 60%.
`N#CC(O)CCc1ccccc1` (stereo not shown) [2-hydroxy-4-phenylbutyronitrile] was tested, and the “activity of the nitrile hydratase in the crude lysate” value ([1]; E. coli clone 7.3) was “approximately 0.3 μmol·mg^−1·min^−1”.
With `O=C(O)[C@H](O)c1ccccc1Cl` [(R)-2-chloromandelic acid] the “formation of (R)-2-chloromandelic acid” value ([2]; batch a: 2.2 g/l (13.1 mM) (R)-2-chloromandelonitrile, 10 min) was 77%, the “formation of (R)-2-chloromandelic acid” value ([2]; batch a: 2.2 g/l (13.1 mM), 20 min) was 86% and the “formation of (R)-2-chloromandelic acid” value ([2]; batch a: 2.2 g/l (13.1 mM), 30 min) was 92%. The “formation of (R)-2-chloromandelic acid” value ([2]; batch a: 2.2 g/l (13.1 mM), 40 min) was 94%, the “formation of (R)-2-chloromandelic acid” value ([2]; batch a: 2.2 g/l (13.1 mM), 50 min) was 96% and the “formation of (R)-2-chloromandelic acid” value ([2]; batch b: 6.6 g/l (39.4 mM), 10 min) was 45%. For the same molecule, the “formation of (R)-2-chloromandelic acid” value ([2]; batch b: 6.6 g/l (39.4 mM), 20 min) was 70%, the “formation of (R)-2-chloromandelic acid” value ([2]; batch b: 6.6 g/l (39.4 mM), 30 min) was 82% and the “formation of (R)-2-chloromandelic acid” value ([2]; batch b: 6.6 g/l (39.4 mM), 40 min) was 89%. The “formation of (R)-2-chloromandelic acid” value ([2]; batch b: 6.6 g/l (39.4 mM), 50 min) was 95%, the “formation of (R)-2-chloromandelic acid” value ([2]; batch c: 13.2 g/l (78.8 mM), 10 min) was 58% and the “formation of (R)-2-chloromandelic acid” value ([2]; batch c: 13.2 g/l (78.8 mM), 20 min) was 85%. The “formation of (R)-2-chloromandelic acid” value ([2]; batch c: 13.2 g/l (78.8 mM), 30 min) was 96%, the “formation of (R)-2-chloromandelic acid” value ([2]; batch c: 13.2 g/l (78.8 mM), 40 min) was 98% and the “formation of (R)-2-chloromandelic acid” value ([2]; batch c: 13.2 g/l (78.8 mM), 50 min) was 100%.
With `N#CC(O)CCc1ccccc1` (stereo not shown) [drawing 3] the “Activity of the nitrile hydratase” value [1] was 100%.
